Assay results: patent US20190071416A1, “COMPOUNDS FOR TREATMENT OF CANCER AND EPIGENETICS” (Agency For Science, Technology and Research, priority 2015, published 2019)
pIC50: −log10 of the molar value.

Target: T1, SMYD3 (Homo sapiens, UniProt Q9H7B4)
T1 sequence (Q9H7B4 1-428): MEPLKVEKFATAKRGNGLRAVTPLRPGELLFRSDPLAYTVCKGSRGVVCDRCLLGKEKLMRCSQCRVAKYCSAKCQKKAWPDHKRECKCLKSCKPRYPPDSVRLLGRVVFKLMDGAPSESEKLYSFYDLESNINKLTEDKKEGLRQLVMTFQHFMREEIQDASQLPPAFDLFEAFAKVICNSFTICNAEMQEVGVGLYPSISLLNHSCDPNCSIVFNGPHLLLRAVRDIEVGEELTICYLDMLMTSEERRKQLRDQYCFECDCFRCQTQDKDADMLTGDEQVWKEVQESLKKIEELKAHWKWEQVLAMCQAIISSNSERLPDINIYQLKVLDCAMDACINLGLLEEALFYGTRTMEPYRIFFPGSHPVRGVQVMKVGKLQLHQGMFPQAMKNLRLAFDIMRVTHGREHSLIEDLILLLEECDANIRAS
Experiment: SMYD3 biochemical assay (MTase-Glo, MAP3K2 peptide substrate)
Settings: Table 3; MTase assay, MAP3K2 peptide substrate; read-out: IC50
Procedure, shortened: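 Luminescent readout of SAH production (coupled SAH→ATP conversion, MTase-Glo) after SMYD3 reacted 30 min at room temperature with 1.0 µM SAM and 10 µM MAP3K2 peptide, both final. Non-linear regression gave IC50 values.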

Structure (SMILES) | pIC50
CCCOC(=O)N1CCN(C(=O)c2ccc3c(Cl)c(C)c(-c4ccc(OC)cc4)nc3c2)CC1 [B031, Propyl 4-(4-chloro-2-(4-methoxyphenyl)-3-methylquinoline-7-carbonyl)piperazine-1-carboxylate] | 6.55
CCCOC(=O)N1CCN(C(=O)c2ccc3c(Cl)c(C)c(-c4cccc(C#N)c4)nc3c2)CC1 [B032, Propyl 4-(4-chloro-2-(3-cyanophenyl)-3-methylquinoline-7-carbonyl)piperazine-1-carboxylate] | 5.26
CCCOC(=O)N1CCN(C(=O)c2ccc3c(Cl)cc(-c4cccc(C(N)=O)c4)nc3c2)CC1 [B033, Propyl 4-(2-(3-carbamoylphenyl)-4-chloroquinoline-7-carbonyl)piperazine-1-carboxylate] | 6.68
CCCOC(=O)N1CCN(C(=O)c2ccc3c(Cl)c(C)c(-c4ccc(OC)cc4)nc3c2)C[C@@H]1C [B034, Propyl (S)-4-(4-chloro-2-(4-methoxyphenyl)-3-methylquinoline-7-carbonyl)-2-methylpiperazine-1-carboxylate] | 6.92
CCCOC(=O)N1CCN(C(=O)c2ccc3c(Cl)c(C)c(-c4cccc(C(N)=O)c4)nc3c2)CC1 [B035, Propyl 4-(2-(3-carbamoylphenyl)-4-chloro-3-methylquinoline-7-carbonyl)piperazine-1-carboxylate] | 6.00
CCCOC(=O)N1CCN(C(=O)c2ccc3c(Cl)c(C)c(-c4ccc(OC)cc4)nc3c2)C[C@H]1C [B036, Propyl (R)-4-(4-chloro-2-(4-methoxyphenyl)-3-methylquinoline-7-carbonyl)-2-methylpiperazine-1-carboxylate] | 6.82
CCCOC(=O)N1CCN(C(=O)c2ccc3c(Cl)c(C)c(-c4ccc(C#N)cc4)nc3c2)CC1 [B037, Propyl 4-(4-chloro-2-(4-cyanophenyl)-3-methylquinoline-7-carbonyl)piperazine-1-carboxylate] | 5.74
CCCOC(=O)N1CCN(C(=O)c2ccc3c(Cl)c(C)c(-c4cccc(CN)c4)nc3c2)CC1 [B038, Propyl 4-(2-(3-(aminomethyl)phenyl)-4-chloro-3-methylquinoline-7-carbonyl)piperazine-1-carboxylate] | 7.00
CCCOC(=O)N1CCN(C(=O)c2ccc3c(Cl)cc(-c4cccc(CN)c4)nc3c2)CC1 [B039, Propyl 4-(2-(3-(aminomethyl)phenyl)-4-chloroquinoline-7-carbonyl)piperazine-1-carboxylate] | 7.04
CCCOC(=O)N1CCN(C(=O)c2ccc3c(Cl)cc(Nc4ccccc4)nc3c2)CC1 [B040, Propyl 4-(4-chloro-2-(phenylamino)quinoline-7-carbonyl)piperazine-1-carboxylate] | 5.49
CCCOC(=O)N1CCN(C(=O)c2ccc3c(Cl)cc(Nc4ccc(OC)cc4)nc3c2)CC1 [B041, Propyl 4-(4-chloro-2-((4-methoxyphenyl)amino)quinoline-7-carbonyl)piperazine-1-carboxylate] | 5.92
CCCOC(=O)N1CCN(C(=O)c2ccc3c(Cl)cc(Nc4cccnc4)nc3c2)CC1 [B042, Propyl 4-(4-chloro-2-(pyridin-3-ylamino)quinoline-7-carbonyl)piperazine-1-carboxylate] | 5.51
CCCOC(=O)N1CCN(C(=O)c2ccc3c(Cl)c(C)c(-c4cccc([N+](=O)[O-])c4)nc3c2)CC1 [B043, Propyl 4-(4-chloro-3-methyl-2-(3-nitrophenyl)quinoline-7-carbonyl)piperazine-1-carboxylate] | 5.62
CCCOC(=O)N1CCN(C(=O)c2ccc3c(Cl)c(C)c(-c4cccc(N)c4)nc3c2)CC1 [B044, Propyl 4-(2-(3-aminophenyl)-4-chloro-3-methylquinoline-7-carbonyl)piperazine-1-carboxylate] | 7.35
CCCOC(=O)N1CCN(C(=O)c2ccc3c(Cl)cc(-c4ccc(OC)cc4)nc3c2)C[C@H]1C [B045, Propyl (R)-4-(4-chloro-2-(4-methoxyphenyl)quinoline-7-carbonyl)-2-methylpiperazine-1-carboxylate] | 6.36
CCCOC(=O)N1CCN(C(=O)c2ccc3c(Cl)cc(-c4ccc(OC)cc4)nc3c2)CC1 [B046, Propyl 4-(4-chloro-2-(4-methoxyphenyl)quinoline-7-carbonyl)piperazine-1-carboxylate] | 6.59
CCCOC(=O)N1CCN(C(=O)c2ccc3c(Cl)cc(-c4ccc(OC)cc4)nc3c2)[C@@H](C)C1 [B047, Propyl (S)-4-(4-chloro-2-(4-methoxyphenyl)quinoline-7-carbonyl)-3-methylpiperazine-1-carboxylate] | 6.64
CCCOC(=O)N1CCN(C(=O)c2ccc3c(Cl)cc(-c4cc(F)cc(F)c4)nc3c2)CC1 [B048, Propyl 4-(4-chloro-2-(3,5-difluorophenyl)quinoline-7-carbonyl)piperazine-1-carboxylate] | 5.52

Structure (SMILES) | pIC50
CCCOC(=O)N1CCN(C(=O)c2ccc3c(Cl)cc(-c4cccc(F)c4)nc3c2)CC1 [B049, Propyl 4-(4-chloro-2-(3-fluorophenyl)quinoline-7-carbonyl)piperazine-1-carboxylate] | 6.00
CCCOC(=O)N1CCN(C(=O)c2ccc3c(Cl)cc(-c4ccc(N5CCCC5)cc4)nc3c2)CC1 [B050, Propyl 4-(4-chloro-2-(4-(pyrrolidin-1-yl)phenyl)quinoline-7-carbonyl)piperazine-1-carboxylate] | 6.10
CCCOC(=O)N1CCN(C(=O)c2ccc3c(Cl)ccnc3c2)CC1 [B051, Propyl 4-(4-chloroquinoline-7-carbonyl)piperazine-1-carboxylate] | 5.49
CCCOC(=O)N1CCN(C(=O)c2ccc3c(Cl)cc(-c4ccc(C)cc4)nc3c2)C[C@H]1C [B052, Propyl (R)-4-(4-chloro-2-(p-tolyl)quinoline-7-carbonyl)-2-methylpiperazine-1-carboxylate] | 6.11
CCCOC(=O)N1CCN(C(=O)c2ccc3c(Cl)cc(-c4cccc(C(N)=O)c4)nc3c2)C[C@H]1C [B053, Propyl (R)-4-(2-(3-carbamoylphenyl)-4-chloroquinoline-7-carbonyl)-2-methylpiperazine-1-carboxylate] | 6.74
CCCOC(=O)N1CCN(C(=O)c2ccc3c(Cl)cc(-c4cccc(CN)c4)nc3c2)C[C@H]1C [B054, Propyl (R)-4-(2-(3-(aminomethyl)phenyl)-4-chloroquinoline-7-carbonyl)-2-methylpiperazine-1-carboxylate] | 7.00
CCCOC(=O)N1CCN(C(=O)c2ccc3c(Cl)cc(-c4ccc(N(C)C)cc4)nc3c2)CC1 [B055, Propyl 4-(4-chloro-2-(4-(dimethylamino)phenyl)quinoline-7-carbonyl)piperazine-1-carboxylate] | 6.46
CCCOC(=O)N1CCN(C(=O)c2ccc3c(Cl)c(C)c(-c4cccc(N)c4)nc3c2)C[C@H]1C [B056, Propyl (R)-4-(2-(3-aminophenyl)-4-chloro-3-methylquinoline-7-carbonyl)-2-methylpiperazine-1-carboxylate] | 6.92
C#Cc1ccc(-c2cc(Cl)c3ccc(C(=O)N4CCN(C(=O)OCCC)CC4)cc3n2)cc1 [B057, Propyl 4-(4-chloro-2-(4-ethynylphenyl)quinoline-7-carbonyl)piperazine-1-carboxylate] | 6.03
CCCOC(=O)N1CCN(C(=O)c2ccc3c(Cl)cc(-c4cccc(N(C)C)c4)nc3c2)CC1 [B058, Propyl 4-(4-chloro-2-(3-(dimethylamino)phenyl)quinoline-7-carbonyl)piperazine-1-carboxylate] | 5.83
C#Cc1ccc(-c2cc(Cl)c3ccc(C(=O)N4CCN(C(=O)OCCC)[C@H](C)C4)cc3n2)cc1 [B059, Propyl (R)-4-(4-chloro-2-(4-ethynylphenyl)quinoline-7-carbonyl)-2-methylpiperazine-1-carboxylate] | 6.00
CCCOC(=O)N1CCN(C(=O)c2ccc3c(Cl)cc(-c4ccc(N(C)C)cc4)nc3c2)C[C@H]1C [B060, Propyl (R)-4-(4-chloro-2-(4-(dimethylamino)phenyl)quinoline-7-carbonyl)-2-methylpiperazine-1-carboxylate] | 6.38
CCCOC(=O)N1CCN(C(=O)c2ccc3c(Cl)cc(-c4cccc(N(C)C)c4)nc3c2)C[C@H]1C [B061, Propyl (R)-4-(4-chloro-2-(3-(dimethylamino)phenyl)quinoline-7-carbonyl)-2-methylpiperazine-1-carboxylate] | 6.06
CCCOC(=O)N1CCN(C(=O)c2ccc3c(Cl)cc(-c4ccc(C#N)cc4)nc3c2)C[C@H]1C [B062, Propyl (R)-4-(4-chloro-2-(4-cyanophenyl)quinoline-7-carbonyl)-2-methylpiperazine-1-carboxylate] | 6.47
CCCOC(=O)N1CCN(C(=O)c2ccc3c(Cl)cc(-c4ccc(C(N)=O)cc4)nc3c2)C[C@H]1C [B063, Propyl (R)-4-(2-(4-carbamoylphenyl)-4-chloroquinoline-7-carbonyl)-2-methylpiperazine-1-carboxylate] | 7.10
CCCOC(=O)N1CCN(C(=O)c2ccc3c(Cl)cc(-c4ccc(CN)cc4)nc3c2)C[C@H]1C [B064, Propyl (R)-4-(2-(4-(aminomethyl)phenyl)-4-chloroquinoline-7-carbonyl)-2-methylpiperazine-1-carboxylate] | 7.24
CCCOC(=O)N1CCN(C(=O)c2ccc3c(Cl)cc(-c4ccc(F)cc4)nc3c2)CC1 [B065, Propyl 4-(4-chloro-2-(4-fluorophenyl)quinoline-7-carbonyl)piperazine-1-carboxylate] | 6.25
